Assay results published in the supplement of paper PMC10307832.

Key:
Assay in all cases: relative viability (nuclei count vs DMSO), 5 days (fraction); higher = more cells survive
[1] = compound: CC1=NC=CC(=C1)C2=CC=C(C=C2)CC(=O)NC3=CC=C(C=C3)C4=CN=CC=C4 [Wnt-C59] + CC(C)C[C@H](NC(=O)[C@H](Cc1ccccc1)NC(=O)c1cnccn1)B(O)O [Bortezomib] (partner 0.002 µM)
Method in brief: (§1)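 Relative viability equals treated-well nuclei counts divided by vehicle-well nuclei counts. Counts came from 4× images of lung cancer cell lines grown in 1536-well plates for 5 days after pin-tool dosing on the day after seeding. Dosing used one drug alone or a fixed anchor-drug dose plus five library-drug doses (not always all listed) in √10 steps, and values are medians of duplicate plates.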

[2] = compound: CC1=NC=CC(=C1)C2=CC=C(C=C2)CC(=O)NC3=CC=C(C=C3)C4=CN=CC=C4 [Wnt-C59] + COc1cc2c(Oc3ccc(NC(=O)C4(C(=O)Nc5ccc(F)cc5)CC4)cc3F)ccnc2cc1OCCCN1CCOCC1 [Foretinib] (partner 0.25 µM)
Method in brief: as §1

[3] = compound: CC1=NC=CC(=C1)C2=CC=C(C=C2)CC(=O)NC3=CC=C(C=C3)C4=CN=CC=C4 [Wnt-C59] + Nc1nc2[nH]cc(CCc3ccc(C(=O)N[C@@H](CCC(=O)O)C(=O)O)cc3)c2c(=O)[nH]1 [Pemetrexed] (partner 0.2 µM)
Method in brief: as §1

[4] = compound: CS(=O)(=O)CCNCc1ccc(-c2ccc3ncnc(Nc4ccc(OCc5cccc(F)c5)c(Cl)c4)c3c2)o1 [Lapatinib] + CC(C)C[C@H](NC(=O)[C@H](Cc1ccccc1)NC(=O)c1cnccn1)B(O)O [Bortezomib] (partner 0.002 µM)
Method in brief: as §1

Row | Cell Line | relative viability ([1]; first compound 0.001 µM) | relative viability ([1]; first compound 0.01 µM) | relative viability ([1]; first compound 0.03162 µM) | relative viability ([1]; first compound 0.1 µM) | relative viability ([2]; first compound 0.001 µM) | relative viability ([2]; first compound 0.01 µM) | relative viability ([2]; first compound 0.03162 µM) | relative viability ([2]; first compound 0.1 µM) | relative viability ([3]; first compound 0.001 µM) | relative viability ([3]; first compound 0.01 µM) | relative viability ([3]; first compound 0.03162 µM) | relative viability ([3]; first compound 0.1 µM) | relative viability ([4]; first compound 0.02 µM) | relative viability ([4]; first compound 0.06325 µM) | relative viability ([4]; first compound 0.2 µM) | relative viability ([4]; first compound 0.6325 µM) | relative viability ([4]; first compound 2 µM)
1 | NCI-H2087 | 0.68 | 0.715 | 0.789 | 0.753 | 1.1 | 0.979 | 0.947 | 1.01 | 0.629 | 0.72 | 0.697 | 0.709 | 0.445 | 0.738 | 0.832 | 0.679 | 0.761
2 | BEN | 0.821 | 0.88 | 1.03 | 0.878 | 0.877 | 0.615 | 0.786 | 0.747 | 0.707 | 0.738 | 0.754 | 0.846 | 0.665 | 0.783 | 0.637 | 0.781 | 0.608
3 | COR-L23 | 1.02 | 0.944 | 0.912 | 0.95 | 0.993 | 0.916 | 0.853 | 0.913 | 0.221 | 0.194 | 0.206 | 0.2 | 0.948 | 1.07 | 1.08 | 0.934 | 0.998
4 | ChaGo-K-1 | 0.767 | – | 0.892 | 1.16 | 1.01 | 0.872 | 0.978 | 0.996 | 0.258 | 0.259 | 0.252 | 0.266 | – | 1.04 | 0.863 | 0.956 | 0.738
5 | NCI-H1755 | 0.974 | 0.88 | 0.929 | 0.948 | 0.884 | 0.895 | 0.55 | 0.866 | 0.421 | 0.407 | 0.419 | 0.402 | 0.807 | 0.919 | 0.997 | 0.984 | 0.874
6 | EMC-BAC-2 | 0.913 | 0.926 | 0.998 | 0.943 | 0.946 | 0.964 | 0.967 | 0.561 | 0.474 | 0.447 | 0.426 | 0.439 | 0.871 | 0.999 | 1.07 | 0.991 | 0.87
7 | NCI-H1734 | 0.906 | 0.778 | 0.992 | 0.914 | 0.808 | 0.839 | 0.922 | 0.962 | 0.414 | 0.389 | 0.423 | 0.394 | – | 0.839 | 1.02 | 0.993 | 0.862
8 | A-427 | 0.98 | 1.01 | 1 | 0.979 | 1.02 | 0.977 | 1.29 | 1.24 | 0.936 | 1.04 | 0.994 | 1.1 | – | 0.953 | 1.05 | 0.901 | 0.976
